Data set [1] relates to ARPE-19 cells. Kind of data set: VEGF ELISA in ARPE-19 cells treated with recombinant IL-18. The note with it: increasing doses of IL-18, 24 hrs, growth medium. The format is cell-based. The method, then:
(§1) ELISA's were used to quantify cytokines in supernatants from the various experimental groups used throughout this study. IL-1β (RnD Systems), IL-18 (MBL International), IL-6 (RnD Systems), TNF-α (RnD Systems) and VEGF (RnD Systems) were analyzed throughout. All ELISA's were conducted a minimum of 3 times in triplicate. Inhibitors used during this study were added at the following highest concentrations 1 h prior to inflammasome activation: 1 μg/ml of caspase-1 inhibitor VI (Calbiochem), 5 μM cytochalasin D (Sigma Aldrich, Ireland), 10 μM CA-074 Me (cathepsin B inhibitor) (Sigma Aldrich, Ireland), 10 μM DPI (Sigma Aldrich, Ireland).
(§2) ARPE-19 cell line (ATCC CRL 2302) were obtained from LGC promochem, THP1 cells and primary isolated human peripheral blood mononuclear […] (PBMCs) were used for in vitro inflammasome activation assays. Cells were cultured at 37° C., 5% CO2, 95% air in a 1:1 mixture of Dulbecco's modified Eagle's medium (DMEM) and Ham's F12 medium with 1.2 g/L sodium bicarbonate, 2.5 mM L-glutamine, 15 mM HEPES, 0.5 mM sodium pyruvate (Sigma Aldrich) with 10% foetal calf serum (FCS). […]
(§3) We reasoned that IL-18 might confer its protection via the regulation of VEGF synthesis. To test this hypothesis we treated ARPE19 cells and a mouse brain microvascular endothelial cell line (bEnd.3) with recombinant IL-18 and subsequently analysed VEGF levels in the growth medium. […]

Data set [2] has as its system mouse brain microvascular endothelial cell line (bEnd.3). Kind of data set: VEGF ELISA in bEnd.3 cells treated with recombinant IL-18. The format is cell-based. Particulars: increasing doses of IL-18, 24 hrs, growth medium. On the procedure: as §1, §2, §3
A general note: ELISA stands for enzyme-linked immunosorbent assay.

The subject of data set [3] is intraocular neovascularization in C57BL/6 mice. The note with it: administered to C57BL/6 mice during development of oxygen induced retinopathy; cited from earlier work.
The test system of data set [4] is human PBMC. The experiment in a line: Cytokine ELISA in LPS-primed, C1Q-activated human PBMC with inhibitors. In kind it is cell-based. Particulars: PBMC primed with LPS overnight, 5 μg/ml C1Q 6 h, inhibitor added 1 h before C1Q. On the procedure:
(§4) FIG. 3: Complement factor C1Q, a component of Drusen, activates the NLRP3 inflammasome: (a) Production of IL-1β (left panel) and TNFα (right panel) in BMDMs primed with CEP for 3 h and activated for 6 h with C1q at increasing doses. (b) Western blot of caspase-1 cleavage products in THP1 cells primed with LPS and treated with increasing doses of C1Q. (c) Live cell imaging of immortalised BL6 BMDMs stably expressing YFP-ASC. Cells were primed for 3 hrs with either LPS (top panel) or CEP-HSA followed by treatment with 10 μg C1Q (right panel) for a further 2 hrs. Oligomerisation of ASC-YFP was observed by speck formation, original magnification ×60. (d) IL-1β (left panel) and TNF-α (right panel) production in WT and Nlrp3^-/- BMDCs primed with LPS (3 h) and activated with C1Q (16 h) at increasing doses (2.5, 5 and 10 μg C1Q). (e) IL-1β, IL-18 and IL-6 production in human PBMC primed with […] LPS overnight and activated with 5 μg ml C1Q for 6 h, with the addition, 1 h before C1Q treatment of increasing doses (10 fold) of ZVAD (caspase-1 inhibitor). All ELISA data are representative of a minimum of 3 separate experiments carried out in triplicate.
FIG. 13: IL-1β, IL-18 and IL-6 production in human PBMC primed with 100 ng/ml LPS overnight and activated with 5 μg/ml C1Q for 6 h, with the addition, 1 h before C1Q treatment of increasing doses (10 fold) of (a) DPI (ROS inhibitor), (b) Bafilomycin (inhibits lysosomal acidification), (c) CA-074 Me (cathepsin B inhibitor).
as §1
(§5) ARPE-19 cell line (ATCC CRL 2302) were obtained from LGC promochem, THP1 cells and primary isolated human peripheral blood mononuclear […] (PBMCs) were used for in vitro inflammasome activation assays. Cells were cultured at 37° C., 5% CO2, 95% air in a 1:1 mixture of Dulbecco's modified Eagle's medium (DMEM) and Ham's F12 medium with 1.2 g/L sodium bicarbonate, 2.5 mM L-glutamine, 15 mM HEPES, 0.5 mM sodium pyruvate (Sigma Aldrich) with 10% foetal calf serum (FCS). BMDCs and BMDMs were also isolated from WT, NLRP3-/-, TLR-2-/-, C3H/HeN and C3H/HeJ mice on a congenic C57/B16 background. BMDCs and BMDMs were stained with anti-CD11c-APC and anti-CD11b-PeCy7. Cells were gated on live single cells and expression of CD11c and CD11b was assesed by flow cytometry (FIG. 19). Mouse bEnd.3 microvascular endothelial cells were grown on fibronectin (Sigma Aldrich Ireland) coated tissue culture flasks in DMEM containing Glutamax and 10% FCS.

A short description of data set [5]: Zeta potential measurement of C1Q in solution. The format is physicochemical.
For data set [6], the system named is BMDMs. The experiment in a line: Cytokine ELISA in BMDMs activated with C1Q. The format is cell-based, mouse. The method, then: as §4, §1
(§6) ARPE-19 cell line (ATCC CRL 2302) were obtained from LGC promochem, THP1 cells and primary isolated human peripheral blood mononuclear […] (PBMCs) were used for in vitro inflammasome activation assays. […]

The test system of data set [7] is THP1 cells. Kind of data set: Western blot of caspase-1 cleavage products in THP1 cells. In kind it is cell-based, human. Particulars: THP1 cell lysates. The method, then: Generally, antibodies specific for caspase-1 (Santa-Cruz Biotech), beta-actin (Abcam), NLRP3 (Sigma Aldrich, Ireland), TLR-4 (Santa-Cruz Biotech) were incubated on membranes overnight at 4° C. Membranes were washed with TBS, and incubated with a secondary antibody against rabbit (IgG) with Horse-Radish-Peroxidase (HRP) conjugates (1:2500) (Sigma-Aldrich, Ireland), or mouse (IgG) (1:1000), (Sigma-Aldrich, Ireland), for 3 hours at room temperature. Immune complexes were detected using enhanced chemiluminescence (ECL). All Western blots were repeated a minimum of 3 times.
as §5, with “Mouse bEnd.3 microvascular endothelial cells were grown on fibronectin (Sigma Aldrich Ireland) coated tissue culture flasks in DMEM containing Glutamax and 10% FCS.” left out
On the technique in general: A western blot detects proteins with antibodies after separation by electrophoresis.

The subject of data set [8] is BMDMs expressing YFP-ASC. The experiment in a line: ASC speck formation in immortalised BMDMs expressing YFP-ASC. In kind it is cell-based, mouse. Particulars: primed BMDMs, live cell imaging. From the text: Live cell imaging of speck formation was undertaken using a temperature and CO2 regulated confocal laser scanning microscopy (Olympus FluoView TM FV1000).
Data set [9] has as its system BMDCs. Kind of data set: Cytokine ELISA in WT and Nlrp3-/- BMDCs primed with LPS and activated with C1Q. The format is cell-based, mouse. The note with it: for production of IL-1β: LPS 3 h, C1Q 16 h. The method, then:
as §4, §1, §6

In data set [10] the test system is wet AMD. Particulars: human, in vivo; cited from earlier work.

Residues, ends and D or L forms follow the SMILES beside them. *: point of attachment. Cbz = O=C(OCc1ccccc1)*; CH2F = FC*

For “IL-18: 18KDa mature IL-18; protein sequence NCBI Accession no. NP—001553.1; also covers recombinant IL-18”, the “levels of VEGF secreted” value in data set [1] and in [2] was “significantly decreased” each time. In addition, in data set [3], the neovascularization result is reported as “no inhibition of neovascularization”.

With `CC(NC(=O)C(NC(=O)OCc1ccccc1)C(C)C)C(=O)NC(CC(=O)O)C(=O)CF` (stereo not drawn) [ZVAD] (Cbz-Val-Ala-Asp-CH2F; configuration not given here), in data set [4], the “C1Q induced IL-1β production” value is recorded as “decreased” and the “C1Q induced IL-18 production” value was “decreased”.

With “C1Q: complement factor, primary initiating component of the classical complement pathway; drusen component, isolated from human blood”, in data set [5], the “zeta average (zeta potential)” value came to 11.8 mV. The “production of IL-1β” value was “produced significant levels of IL-1β” in data set [6] (BMDMs primed with CEP-HSA 3 h, C1Q 6 h); “did not cause the production of IL-1β” in data set [6] (C1Q alone, unprimed BMDMs); “failed to produce IL-1β” in [9] (Nlrp3-/- cells); “did produce a significant level of IL-1β” in data set [9] (WT BMDCs). In addition, in [6] (BMDMs primed with CEP-HSA, C1Q added), the “secretion of TNFα” value was “remained unchanged”. The “cleaved caspase-1 p10” value in data set [7] is reported as “observed cleaved caspase-1 p10”. Also, the “ASC oligomerisation (YFP-ASC speck formation)” value in data set [8] is recorded as “could cause ASC oligomerisation”. Moreover, the “levels of TNFα” value in data set [9] (WT and Nlrp3-/- BMDCs, LPS primed, C1Q) is recorded as “remained unchanged”.

Regarding `CO/C1=C\C(C)=C\[C@@H](C)[C@@H](O)[C@@H](C)C/C(C)=C/C=C/[C@H](OC)[C@@H]([C@@H](C)[C@@H](O)[C@H](C)[C@@]2(O)C[C@@H](O)[C@H](C)[C@@H](C(C)C)O2)OC1=O` [bafilomycin A], in data set [4], the “C1Q induced IL-1β production” value is on record as “restricted”, the “C1Q induced IL-18 production” value is reported as “restricted” and the IL-6 production entry is given as “no effect”.

For `c1ccc2c(c1)[I+]c1ccccc1-2` [DPI], the “C1Q induced IL-1β production” value in [4] is “no effect”.

As to `CCCNC(=O)[C@H]1O[C@@H]1C(=O)N[C@H](C(=O)N1CCC[C@H]1C(=O)OC)[C@@H](C)CC` [CA-074 Me], in data set [4], the “C1Q induced IL-1β production” value is on record as “restricted”, the “C1Q induced IL-18 production” value is given as “restricted” and the IL-6 production entry is reported as “no effect”.

Regarding “Infliximab: marketed drug tested in clinical trials in wet AMD”, the “subjects in whom symptoms were greatly exacerbated” value in data set [10] was “more than 50%”.

The values above are taken from US20140234252A1, “Composition and Methods for the Treatment of Degenerative Retinal Conditions” (The Provost, Fellows, Foundation Scholars, and the other …, priority 2011, published 2014).
